The source of these data is ChEMBL document CHEMBL5653631, “A Potent and Selective ULK1 Inhibitor Suppresses Autophagy and Sensitizes Cancer Cells to Nutrient Stress” (iScience, 2018).

Assay [1] deals with PAS domain-containing serine/threonine-protein kinase (Homo sapiens) (UniProt Q96RG2). In words: Inhibition of human recombinant PASK at 15 nM related to control ULK1.
Assay [2] has as its target Cyclin-dependent kinase 12 (Homo sapiens) (UniProt Q9NYV4). In words: Inhibition of human recombinant CRK7 at 15 nM related to control ULK1.
Assay [3] addresses Serine/threonine-protein kinase PAK 2 (Homo sapiens) (UniProt Q13177). In words: Inhibition of human recombinant PAK2 at 15 nM related to control ULK1.
The target in assay [4] is Eukaryotic translation initiation factor 2-alpha kinase 1 (Homo sapiens) (UniProt Q9BQI3). The assay is described as follows: Inhibition of human recombinant HRI at 15 nM related to control ULK1.
Assay [5] addresses Angiopoietin-1 receptor (Homo sapiens) (UniProt Q02763). The assay is described as follows: Inhibition of human recombinant Tie2 at 40 nM in presence of ATP by radiometric assay relative to control.
In assay [6] the target is Dual specificity protein kinase CLK4 (Homo sapiens) (UniProt Q9HAZ1). In words: Inhibition of human recombinant CLK4 at 40 nM related to control ULK1.
The target of assay [7] is Serine/threonine-protein kinase MRCK alpha (Homo sapiens) (UniProt Q5VT25). The assay is described as follows: Inhibition of human recombinant MRCKa at 40 nM related to control ULK1.
Assay [8] concerns the target Serine/threonine-protein kinase tousled-like 2 (Homo sapiens) (UniProt Q86UE8). The assay is described as follows: Inhibition of human recombinant TLK2 at 40 nM related to control ULK1.
Assay [9] deals with T1, Ephrin type-B receptor 3 (Homo sapiens) (UniProt P54753).
T1 sequence (whole entry): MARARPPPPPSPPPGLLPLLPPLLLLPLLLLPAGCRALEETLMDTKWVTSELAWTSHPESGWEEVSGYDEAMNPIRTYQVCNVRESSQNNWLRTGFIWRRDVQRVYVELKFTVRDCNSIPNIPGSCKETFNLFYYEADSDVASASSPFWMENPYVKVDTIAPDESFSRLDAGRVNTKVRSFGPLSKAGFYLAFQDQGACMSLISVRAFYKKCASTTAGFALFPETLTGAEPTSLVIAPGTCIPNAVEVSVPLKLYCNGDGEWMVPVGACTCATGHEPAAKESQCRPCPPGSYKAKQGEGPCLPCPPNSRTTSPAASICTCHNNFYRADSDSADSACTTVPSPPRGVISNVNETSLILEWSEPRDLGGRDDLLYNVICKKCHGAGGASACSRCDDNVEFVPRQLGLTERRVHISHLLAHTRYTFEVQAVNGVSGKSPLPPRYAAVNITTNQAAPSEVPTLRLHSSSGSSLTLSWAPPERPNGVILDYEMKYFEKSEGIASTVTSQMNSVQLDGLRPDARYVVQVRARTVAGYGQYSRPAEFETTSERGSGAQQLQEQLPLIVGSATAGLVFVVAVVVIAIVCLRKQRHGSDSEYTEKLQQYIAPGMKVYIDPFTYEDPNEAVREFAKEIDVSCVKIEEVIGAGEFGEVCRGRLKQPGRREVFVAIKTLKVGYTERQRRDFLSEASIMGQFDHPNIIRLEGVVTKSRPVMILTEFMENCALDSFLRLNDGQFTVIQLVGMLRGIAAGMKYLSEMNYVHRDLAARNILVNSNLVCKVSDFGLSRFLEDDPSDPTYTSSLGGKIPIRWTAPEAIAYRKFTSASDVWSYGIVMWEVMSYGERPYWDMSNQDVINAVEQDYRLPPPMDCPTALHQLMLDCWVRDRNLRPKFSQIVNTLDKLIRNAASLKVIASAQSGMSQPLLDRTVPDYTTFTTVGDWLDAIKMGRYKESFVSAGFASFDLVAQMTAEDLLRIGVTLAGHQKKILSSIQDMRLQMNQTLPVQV
The assay is described as follows: Inhibition of human recombinant EphB3 at 500 nM in presence of ATP by radiometric assay relative to control.

Assay [10] addresses eIF-2-alpha kinase GCN2 (Homo sapiens) (UniProt Q9P2K8). The assay is described as follows: Inhibition of human recombinant GCN2 at 500 nM in presence of ATP by radiometric assay relative to control.
Assay [11] deals with Vascular endothelial growth factor receptor 2 (Homo sapiens) (UniProt P35968). The assay is described as follows: Inhibition of human recombinant KDR at 500 nM related to control ULK1.
The target in assay [12] is T2, Serine/threonine-protein kinase Nek9 (Homo sapiens) (UniProt Q8TD19).
T2 sequence (whole entry): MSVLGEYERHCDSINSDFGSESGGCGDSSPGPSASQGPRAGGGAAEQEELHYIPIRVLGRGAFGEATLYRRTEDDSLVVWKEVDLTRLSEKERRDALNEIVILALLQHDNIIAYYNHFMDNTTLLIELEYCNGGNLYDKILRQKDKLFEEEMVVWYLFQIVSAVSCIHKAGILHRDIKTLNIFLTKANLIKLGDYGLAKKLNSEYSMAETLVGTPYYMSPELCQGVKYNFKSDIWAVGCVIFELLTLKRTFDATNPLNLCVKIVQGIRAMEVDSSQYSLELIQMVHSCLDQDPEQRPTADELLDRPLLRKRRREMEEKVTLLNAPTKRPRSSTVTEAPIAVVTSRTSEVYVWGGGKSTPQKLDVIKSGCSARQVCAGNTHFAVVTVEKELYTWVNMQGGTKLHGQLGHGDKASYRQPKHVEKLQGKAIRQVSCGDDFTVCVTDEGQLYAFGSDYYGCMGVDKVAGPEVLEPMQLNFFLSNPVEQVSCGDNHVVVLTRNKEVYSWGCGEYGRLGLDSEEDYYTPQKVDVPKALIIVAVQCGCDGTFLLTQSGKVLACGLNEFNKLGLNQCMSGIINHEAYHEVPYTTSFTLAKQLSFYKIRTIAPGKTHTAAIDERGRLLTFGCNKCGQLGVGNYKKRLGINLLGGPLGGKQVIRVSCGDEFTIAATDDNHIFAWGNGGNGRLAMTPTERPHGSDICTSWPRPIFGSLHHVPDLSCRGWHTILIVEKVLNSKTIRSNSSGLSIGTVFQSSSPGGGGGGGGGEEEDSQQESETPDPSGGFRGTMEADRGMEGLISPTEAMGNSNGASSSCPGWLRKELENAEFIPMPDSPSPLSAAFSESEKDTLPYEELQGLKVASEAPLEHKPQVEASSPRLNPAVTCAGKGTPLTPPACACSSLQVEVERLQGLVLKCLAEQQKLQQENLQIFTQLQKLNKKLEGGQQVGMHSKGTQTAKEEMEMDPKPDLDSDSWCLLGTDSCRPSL
In words: Inhibition of human recombinant NEK9 at 500 nM in presence of ATP by radiometric assay relative to control.

Chain of Dual specificity protein kinase CLK4 (Homo sapiens) (Q9HAZ1 whole entry, looked up): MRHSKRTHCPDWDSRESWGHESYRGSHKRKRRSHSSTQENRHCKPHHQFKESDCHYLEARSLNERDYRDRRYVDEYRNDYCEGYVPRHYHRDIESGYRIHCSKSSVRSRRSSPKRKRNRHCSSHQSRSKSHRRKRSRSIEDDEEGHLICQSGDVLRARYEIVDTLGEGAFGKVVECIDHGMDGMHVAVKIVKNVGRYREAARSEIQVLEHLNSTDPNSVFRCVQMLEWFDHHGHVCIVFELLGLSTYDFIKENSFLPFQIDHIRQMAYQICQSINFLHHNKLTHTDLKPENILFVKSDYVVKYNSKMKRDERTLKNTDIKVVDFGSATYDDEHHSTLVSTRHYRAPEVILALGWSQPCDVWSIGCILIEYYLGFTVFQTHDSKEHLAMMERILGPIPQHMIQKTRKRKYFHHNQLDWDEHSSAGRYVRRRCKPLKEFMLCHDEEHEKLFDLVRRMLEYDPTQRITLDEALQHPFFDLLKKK
Chain of Serine/threonine-protein kinase MRCK alpha (Homo sapiens) (Q5VT25 whole entry): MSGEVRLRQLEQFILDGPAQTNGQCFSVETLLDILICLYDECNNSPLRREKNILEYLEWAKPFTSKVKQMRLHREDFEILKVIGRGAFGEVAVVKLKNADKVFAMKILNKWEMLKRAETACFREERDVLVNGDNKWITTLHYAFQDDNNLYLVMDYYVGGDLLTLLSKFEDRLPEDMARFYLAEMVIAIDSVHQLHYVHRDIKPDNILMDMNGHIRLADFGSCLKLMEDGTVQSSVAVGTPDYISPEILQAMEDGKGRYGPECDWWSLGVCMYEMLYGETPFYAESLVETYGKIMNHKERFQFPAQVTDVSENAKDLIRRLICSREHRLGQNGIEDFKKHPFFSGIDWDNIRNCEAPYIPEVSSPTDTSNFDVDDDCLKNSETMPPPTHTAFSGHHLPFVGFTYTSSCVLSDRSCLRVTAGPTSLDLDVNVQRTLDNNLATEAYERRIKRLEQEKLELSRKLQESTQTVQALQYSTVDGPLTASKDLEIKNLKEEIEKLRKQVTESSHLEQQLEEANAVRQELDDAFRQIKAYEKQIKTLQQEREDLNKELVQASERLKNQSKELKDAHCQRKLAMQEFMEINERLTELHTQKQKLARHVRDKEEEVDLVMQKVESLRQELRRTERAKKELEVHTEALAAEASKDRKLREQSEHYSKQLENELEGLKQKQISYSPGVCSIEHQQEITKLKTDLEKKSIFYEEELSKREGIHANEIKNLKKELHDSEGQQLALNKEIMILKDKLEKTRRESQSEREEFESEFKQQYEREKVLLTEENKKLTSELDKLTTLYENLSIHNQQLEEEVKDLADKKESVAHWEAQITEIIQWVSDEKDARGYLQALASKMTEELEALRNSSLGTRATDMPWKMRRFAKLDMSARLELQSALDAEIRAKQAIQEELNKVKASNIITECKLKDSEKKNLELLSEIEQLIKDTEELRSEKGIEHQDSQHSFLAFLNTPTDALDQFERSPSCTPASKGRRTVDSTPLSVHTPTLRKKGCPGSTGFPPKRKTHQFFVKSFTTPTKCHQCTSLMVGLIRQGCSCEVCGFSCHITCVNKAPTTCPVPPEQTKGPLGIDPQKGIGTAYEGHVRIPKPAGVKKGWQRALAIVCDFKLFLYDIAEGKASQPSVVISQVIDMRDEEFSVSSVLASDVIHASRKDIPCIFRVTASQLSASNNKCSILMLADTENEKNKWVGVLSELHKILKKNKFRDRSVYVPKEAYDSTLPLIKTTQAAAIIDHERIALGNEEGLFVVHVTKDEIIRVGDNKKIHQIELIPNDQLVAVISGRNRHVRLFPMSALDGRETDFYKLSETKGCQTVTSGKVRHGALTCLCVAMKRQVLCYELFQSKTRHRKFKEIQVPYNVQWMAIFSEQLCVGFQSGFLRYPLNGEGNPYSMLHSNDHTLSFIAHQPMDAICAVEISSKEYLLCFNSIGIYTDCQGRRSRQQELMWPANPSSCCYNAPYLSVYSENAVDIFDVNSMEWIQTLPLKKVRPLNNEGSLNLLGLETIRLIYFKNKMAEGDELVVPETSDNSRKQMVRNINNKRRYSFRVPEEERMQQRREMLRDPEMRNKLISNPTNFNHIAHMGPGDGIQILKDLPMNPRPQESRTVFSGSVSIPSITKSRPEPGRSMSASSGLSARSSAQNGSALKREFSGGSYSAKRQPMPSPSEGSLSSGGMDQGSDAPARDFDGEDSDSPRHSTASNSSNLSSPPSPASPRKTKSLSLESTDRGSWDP
Chain of Angiopoietin-1 receptor (Homo sapiens) (Q02763 whole entry): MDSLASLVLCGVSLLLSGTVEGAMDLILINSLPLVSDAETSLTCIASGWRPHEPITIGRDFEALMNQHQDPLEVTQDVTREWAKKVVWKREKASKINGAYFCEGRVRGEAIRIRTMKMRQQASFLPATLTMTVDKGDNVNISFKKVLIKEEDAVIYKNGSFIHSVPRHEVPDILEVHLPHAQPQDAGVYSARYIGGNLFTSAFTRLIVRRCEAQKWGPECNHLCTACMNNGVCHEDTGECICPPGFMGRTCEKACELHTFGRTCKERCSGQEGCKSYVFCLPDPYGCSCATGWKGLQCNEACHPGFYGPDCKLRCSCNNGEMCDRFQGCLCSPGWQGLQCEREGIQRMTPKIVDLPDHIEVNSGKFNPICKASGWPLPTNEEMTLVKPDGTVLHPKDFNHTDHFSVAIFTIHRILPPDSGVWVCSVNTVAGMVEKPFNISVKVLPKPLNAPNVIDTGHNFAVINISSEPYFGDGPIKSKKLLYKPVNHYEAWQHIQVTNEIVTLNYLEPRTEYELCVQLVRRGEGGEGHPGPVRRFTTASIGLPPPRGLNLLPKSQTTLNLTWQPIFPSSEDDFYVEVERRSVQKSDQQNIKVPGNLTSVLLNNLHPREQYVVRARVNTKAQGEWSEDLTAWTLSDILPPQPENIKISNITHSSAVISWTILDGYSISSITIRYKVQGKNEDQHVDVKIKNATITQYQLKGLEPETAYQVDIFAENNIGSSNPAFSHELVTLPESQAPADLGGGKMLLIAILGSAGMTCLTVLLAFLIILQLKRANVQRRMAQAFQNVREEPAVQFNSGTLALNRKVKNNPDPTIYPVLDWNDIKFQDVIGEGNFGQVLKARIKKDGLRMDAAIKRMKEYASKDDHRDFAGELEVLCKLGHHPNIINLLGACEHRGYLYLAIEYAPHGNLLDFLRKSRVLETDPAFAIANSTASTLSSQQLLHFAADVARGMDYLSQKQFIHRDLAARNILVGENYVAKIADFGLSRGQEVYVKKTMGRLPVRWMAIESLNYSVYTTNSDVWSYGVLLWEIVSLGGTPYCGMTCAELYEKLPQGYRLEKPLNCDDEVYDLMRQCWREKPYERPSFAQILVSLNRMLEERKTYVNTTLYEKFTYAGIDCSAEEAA
Chain of eIF-2-alpha kinase GCN2 (Homo sapiens) (Q9P2K8 whole entry): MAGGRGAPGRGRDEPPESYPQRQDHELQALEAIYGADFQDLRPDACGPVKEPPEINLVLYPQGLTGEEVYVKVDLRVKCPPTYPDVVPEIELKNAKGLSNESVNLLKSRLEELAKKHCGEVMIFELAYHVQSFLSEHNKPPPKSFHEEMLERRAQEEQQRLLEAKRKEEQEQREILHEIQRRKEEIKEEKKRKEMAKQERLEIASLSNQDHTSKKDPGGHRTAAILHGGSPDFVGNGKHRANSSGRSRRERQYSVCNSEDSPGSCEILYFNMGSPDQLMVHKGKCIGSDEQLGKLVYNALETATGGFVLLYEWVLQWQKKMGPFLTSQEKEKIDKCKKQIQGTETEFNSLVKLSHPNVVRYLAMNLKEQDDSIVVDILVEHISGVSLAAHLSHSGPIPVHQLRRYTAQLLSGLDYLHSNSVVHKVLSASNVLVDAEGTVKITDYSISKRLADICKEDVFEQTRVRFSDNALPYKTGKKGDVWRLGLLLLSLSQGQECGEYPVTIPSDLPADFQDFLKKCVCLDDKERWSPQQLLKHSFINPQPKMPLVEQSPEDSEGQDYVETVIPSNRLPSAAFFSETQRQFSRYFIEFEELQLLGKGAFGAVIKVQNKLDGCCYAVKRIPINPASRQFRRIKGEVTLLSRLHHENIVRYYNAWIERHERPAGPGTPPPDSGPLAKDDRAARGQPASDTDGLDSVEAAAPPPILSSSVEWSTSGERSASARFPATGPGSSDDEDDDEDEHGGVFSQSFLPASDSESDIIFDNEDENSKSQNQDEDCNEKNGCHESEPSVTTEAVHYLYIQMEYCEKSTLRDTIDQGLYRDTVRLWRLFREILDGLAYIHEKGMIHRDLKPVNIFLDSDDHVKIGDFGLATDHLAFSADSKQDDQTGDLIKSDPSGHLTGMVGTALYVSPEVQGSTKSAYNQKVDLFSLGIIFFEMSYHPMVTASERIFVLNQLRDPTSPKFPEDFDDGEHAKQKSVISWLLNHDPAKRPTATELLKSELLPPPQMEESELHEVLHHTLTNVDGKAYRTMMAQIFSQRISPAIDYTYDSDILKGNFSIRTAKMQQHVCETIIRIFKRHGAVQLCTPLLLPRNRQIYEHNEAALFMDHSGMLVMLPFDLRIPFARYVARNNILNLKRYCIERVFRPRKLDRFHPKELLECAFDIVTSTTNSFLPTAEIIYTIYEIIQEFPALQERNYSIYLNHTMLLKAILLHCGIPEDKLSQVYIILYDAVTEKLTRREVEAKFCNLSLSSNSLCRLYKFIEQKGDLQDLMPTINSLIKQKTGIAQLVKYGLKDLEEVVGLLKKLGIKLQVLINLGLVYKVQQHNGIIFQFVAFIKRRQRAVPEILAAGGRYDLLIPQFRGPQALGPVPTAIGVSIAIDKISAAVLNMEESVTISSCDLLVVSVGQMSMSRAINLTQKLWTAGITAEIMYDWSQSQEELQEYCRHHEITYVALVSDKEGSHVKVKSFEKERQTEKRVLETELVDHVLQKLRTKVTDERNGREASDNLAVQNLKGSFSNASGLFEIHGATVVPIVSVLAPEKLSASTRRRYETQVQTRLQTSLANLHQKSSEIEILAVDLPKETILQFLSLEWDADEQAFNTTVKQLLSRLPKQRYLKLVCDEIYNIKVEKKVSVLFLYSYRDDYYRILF

For `CC(C)[C@H](NC(=O)c1cc(-c2cnn3cc(-c4ccc(OCCN5CCCCC5)cc4)cnc23)cs1)C(F)(F)F`, the fold change (FC) in assay [1] worked out at 0; in assay [2], 0.05; in assay [3] it was 0; in assay [4] it was 0.

As for `O=C(N[C@@H](C1CC1)C(F)(F)F)c1cc(-c2cnn3cc(-c4ccc(F)cc4)cnc23)cs1`, the inhibition in assay [5] worked out at 0%. For the same compound, the fold change (FC) in [6] was found to be 0.71; in assay [7], 0.03; in assay [8], 0.

`CNC(=O)c1ccccc1Oc1nc(Nc2cc(OC)c(OC)c(OC)c2)ncc1Br`: the inhibition in [9] came out at 0%; in [10] it was 2%; in assay [12], 0%. Moreover, in assay [11], the fold change (FC) was 0.
